Legend:
Type in all cases: in vivo
[1] = system: Kochia (Kochia scoparia); test: Test A preemergence; conditions: Bassia scoparia, pre-emergence, 240 h; for pest or weed control at 500 g/ha: 500 g ai/ha, preemergence, 0 to 100 scale where 0 is no effect and 100 is complete control, read-out: Kochia plant response rating; for pest or weed control at 125 g/ha: Preemergence, 125 g ai/ha, 0 to 100 scale (0 no effect, 100 complete control), read-out: Plant response rating, Kochia
How it was run: (§1)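 Compounds were formulated in a non-phytotoxic solvent mixture with surfactant and applied as a preemergence directed soil spray after seeding, or sprayed postemergence over plants 2 to 10 cm tall at the one- to two-leaf stage. Evaluation after about 10 d compared treated with untreated controls, using a scale from 0 (no effect) to 100 (complete control).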

[2] = system: barnyardgrass (Echinochloa crus-galli); test: Test A preemergence; conditions: Echinochloa crus-galli, pre-emergence, 240 h; for pest or weed control at 500 g/ha: 500 g ai/ha, preemergence, 0 to 100 scale where 0 is no effect and 100 is complete control, read-out: Barnyardgrass plant response rating; for pest or weed control at 125 g/ha: Preemergence, 125 g ai/ha, 0 to 100 scale (0 no effect, 100 complete control), read-out: Plant response rating, Barnyardgrass
How it was run: as §1

[3] = system: giant foxtail (Setaria faberii); test: Test A preemergence; conditions: Setaria faberi, pre-emergence, 240 h; for pest or weed control at 500 g/ha: 500 g ai/ha, preemergence, 0 to 100 scale where 0 is no effect and 100 is complete control, read-out: Foxtail, Giant plant response rating; for pest or weed control at 125 g/ha: Preemergence, 125 g ai/ha, 0 to 100 scale (0 no effect, 100 complete control), read-out: Plant response rating, Foxtail, Giant
How it was run: as §1

[4] = system: pigweed (Amaranthus retroflexus); test: Test A preemergence; conditions: Amaranthus retroflexus, pre-emergence, 240 h; for pest or weed control at 500 g/ha: 500 g ai/ha, preemergence, 0 to 100 scale where 0 is no effect and 100 is complete control, read-out: Pigweed plant response rating; for pest or weed control at 125 g/ha: Preemergence, 125 g ai/ha, 0 to 100 scale (0 no effect, 100 complete control), read-out: Plant response rating, Pigweed
[5] = system: ragweed (common ragweed, Ambrosia elatior); test: Test A preemergence; conditions: Ambrosia artemisiifolia, pre-emergence, 240 h; for pest or weed control at 500 g/ha: 500 g ai/ha, preemergence, 0 to 100 scale where 0 is no effect and 100 is complete control, read-out: Ragweed plant response rating; for pest or weed control at 125 g/ha: Preemergence, 125 g ai/ha, 0 to 100 scale (0 no effect, 100 complete control), read-out: Plant response rating, Ragweed
How it was run: as §1

[6] = system: ryegrass, Italian (Italian ryegrass, Lolium multiflorum); test: Test A preemergence; conditions: Lolium multiflorum, pre-emergence, 240 h, Preemergence, 125 g ai/ha; 0 to 100 scale (0 no effect, 100 complete control); read-out: Plant response rating, Ryegrass, Italian
How it was run: as §1

[7] = system: Galium (catchweed bedstraw, Galium aparine); test: Test A postemergence; conditions: Galium, post-emergence, 240 h, Postemergence; for pest or weed control at 125 g/ha: 125 g ai/ha, visual rating about 10 d after treatment, read-out: Galium plant response rating (0 to 100 scale); for pest or weed control at 500 g/ha: 500 g ai/ha, visual injury, 0 to 100 scale (0 no effect, 100 complete control), approx. 10 d, read-out: Plant response rating, Galium
How it was run: as §1

[8] = system: Kochia (Kochia scoparia); test: Test A postemergence; conditions: Bassia scoparia, post-emergence, 240 h, Postemergence; for pest or weed control at 125 g/ha: 125 g ai/ha, visual rating about 10 d after treatment, read-out: Kochia plant response rating (0 to 100 scale); for pest or weed control at 500 g/ha: 500 g ai/ha, visual injury, 0 to 100 scale (0 no effect, 100 complete control), approx. 10 d, read-out: Plant response rating, Kochia
How it was run: as §1

[9] = system: barnyardgrass (Echinochloa crus-galli); test: Test A postemergence; conditions: Echinochloa crus-galli, post-emergence, 240 h, Postemergence; for pest or weed control at 125 g/ha: 125 g ai/ha, visual rating about 10 d after treatment, read-out: Barnyardgrass plant response rating (0 to 100 scale, 0 no effect, 100 complete control); for pest or weed control at 500 g/ha: 500 g ai/ha, visual injury, 0 to 100 scale (0 no effect, 100 complete control), approx. 10 d, read-out: Plant response rating, Barnyardgrass
How it was run: as §1

[10] = system: blackgrass (Alopecurus myosuroides); test: Test A postemergence; conditions: Alopecurus myosuroides, post-emergence, 240 h, Postemergence; for pest or weed control at 125 g/ha: 125 g ai/ha, visual rating about 10 d after treatment, read-out: Blackgrass plant response rating (0 to 100 scale); for pest or weed control at 500 g/ha: 500 g ai/ha, visual injury, 0 to 100 scale (0 no effect, 100 complete control), approx. 10 d, read-out: Plant response rating, Blackgrass
How it was run: as §1

[11] = system: corn (Zea mays); test: Test A postemergence; conditions: Zea mays, post-emergence, 240 h, Postemergence; for plant injury at 125 g/ha: 125 g ai/ha, visual rating about 10 d after treatment, read-out: Corn plant response rating (0 to 100 scale); for Corn plant response rating (crop injury, 0 = no effect, 100 = complete kill) at 500 g/ha: 500 g ai/ha, visual injury, 0 to 100 scale (0 no effect, 100 complete control), approx. 10 d
How it was run: as §1

[12] = system: giant foxtail (Setaria faberii); test: Test A postemergence; conditions: Setaria faberi, post-emergence, 240 h, Postemergence; for pest or weed control at 125 g/ha: 125 g ai/ha, visual rating about 10 d after treatment, read-out: Foxtail, Giant plant response rating (0 to 100 scale); for pest or weed control at 500 g/ha: 500 g ai/ha, visual injury, 0 to 100 scale (0 no effect, 100 complete control), approx. 10 d, read-out: Plant response rating, Foxtail, Giant
How it was run: as §1

[13] = system: pigweed (Amaranthus retroflexus); test: Test A postemergence; conditions: Amaranthus retroflexus, post-emergence, 240 h, Postemergence; for pest or weed control at 125 g/ha: 125 g ai/ha, visual rating about 10 d after treatment, read-out: Pigweed plant response rating (0 to 100 scale); for pest or weed control at 500 g/ha: 500 g ai/ha, visual injury, 0 to 100 scale (0 no effect, 100 complete control), approx. 10 d, read-out: Plant response rating, Pigweed
How it was run: as §1

[14] = system: ragweed (common ragweed, Ambrosia elatior); test: Test A postemergence; conditions: Ambrosia artemisiifolia, post-emergence, 240 h, Postemergence; for pest or weed control at 125 g/ha: 125 g ai/ha, visual rating about 10 d after treatment, read-out: Ragweed plant response rating (0 to 100 scale); for pest or weed control at 500 g/ha: 500 g ai/ha, visual injury, 0 to 100 scale (0 no effect, 100 complete control), approx. 10 d, read-out: Plant response rating, Ragweed
How it was run: as §1

[15] = system: ryegrass, Italian (Italian ryegrass, Lolium multiflorum); test: Test A postemergence; conditions: Lolium multiflorum, post-emergence, 240 h, Postemergence; for pest or weed control at 125 g/ha: 125 g ai/ha, visual rating about 10 d after treatment, read-out: Ryegrass, Italian plant response rating (0 to 100 scale); for pest or weed control at 500 g/ha: 500 g ai/ha, visual injury, 0 to 100 scale (0 no effect, 100 complete control), approx. 10 d, read-out: Plant response rating, Ryegrass, Italian
How it was run: as §1

Row | SMILES | pest or weed control at 500 g/ha [1] | pest or weed control at 125 g/ha [1] | pest or weed control at 500 g/ha [2] | pest or weed control at 125 g/ha [2] | pest or weed control at 500 g/ha [3] | pest or weed control at 125 g/ha [3] | pest or weed control at 500 g/ha [4] | pest or weed control at 125 g/ha [4] | pest or weed control at 500 g/ha [5] | pest or weed control at 125 g/ha [5] | pest or weed control at 125 g/ha [6] | pest or weed control at 125 g/ha [7] | pest or weed control at 500 g/ha [7] | pest or weed control at 125 g/ha [8] | pest or weed control at 500 g/ha [8] | pest or weed control at 125 g/ha [9] | pest or weed control at 500 g/ha [9] | pest or weed control at 125 g/ha [10] | pest or weed control at 500 g/ha [10] | plant injury at 125 g/ha [11] | also measured
1 | CN1C[C@H](c2cccc(C(C)(F)F)c2)[C@@H](C(=O)Nc2ccc(F)cc2F)C1=O [Compound 1319] | 80% | 80% | 90% | 90% | 90% | 90% | 60% | 0% | 20% | 0% | 30% | 60% | 60% | 20% | 60% | 90% | 90% | 70% | 80% | 70% | Corn plant response rating (crop injury, 0 = no effect, 100 = complete kill) at 500 g/ha [11]: 80%; pest or weed control at 125 g/ha [12]: 90%; pest or weed control at 500 g/ha [12]: 90%; pest or weed control at 125 g/ha [13]: 0%; pest or weed control at 500 g/ha [13]: 50%; pest or weed control at 125 g/ha [14]: 0%; pest or weed control at 500 g/ha [14]: 0%; pest or weed control at 125 g/ha [15]: 40%; pest or weed control at 500 g/ha [15]: 60%
2 | CN1C[C@H](c2ccc3c(c2)CCO3)[C@@H](C(=O)Nc2cccc(F)c2F)C1=O [Compound 1324] | 90% | 90% | 100% | 90% | 100% | 90% | 40% | 0% | 90% | 90% | 20% | 30% | 50% | 30% | 70% | 90% | 90% | 40% | 60% | 60% | Corn plant response rating (crop injury, 0 = no effect, 100 = complete kill) at 500 g/ha [11]: 80%; pest or weed control at 125 g/ha [12]: 90%; pest or weed control at 500 g/ha [12]: 90%; pest or weed control at 125 g/ha [13]: 0%; pest or weed control at 500 g/ha [13]: 20%; pest or weed control at 125 g/ha [14]: 20%; pest or weed control at 500 g/ha [14]: 40%; pest or weed control at 125 g/ha [15]: 30%; pest or weed control at 500 g/ha [15]: 50%
3 | Cc1c(F)ccc([C@H]2CNC(=O)[C@@H]2C(=O)Nc2ccccc2F)c1F [Compound 1326] | 100% | 30% | 90% | 80% | 90% | 60% | 0% | 0% | 0% | 0% | 20% | 0% | 20% | 0% | 0% | 70% | 90% | 0% | 0% | 0% | Corn plant response rating (crop injury, 0 = no effect, 100 = complete kill) at 500 g/ha [11]: 0%; pest or weed control at 125 g/ha [12]: 0%; pest or weed control at 500 g/ha [12]: 0%; pest or weed control at 125 g/ha [13]: 0%; pest or weed control at 500 g/ha [13]: 0%; pest or weed control at 125 g/ha [14]: 0%; pest or weed control at 500 g/ha [14]: 0%; pest or weed control at 125 g/ha [15]: 0%; pest or weed control at 500 g/ha [15]: 20%
